Reference: paper PMC6010071, “Blocking oestradiol synthesis pathways with potent and selective coumarin derivatives” (Journal of Enzyme Inhibition and Medicinal Chemistry, 2018)
Where two headings read alike, the source gives them in different places.

What was measured:
Format in all cases: biochemical
[1] = target: T1, recombinant human HSD1 (Homo sapiens, UniProt P14061); assay: HSD1 inhibition, HPLC assay of [3H]-E1 to [3H]-E2 conversion; conditions: for inhibition at 0.1 µM: average of two measurements; for inhibition at 0.1 µM / inhibition at 1 µM: except for compounds 8 and 9; for inhibition at 1 µM: average of three measurements; for IC50: estimated from three measurements at 1 µM, average ± standard error, read-out: HSD1 inhibition ∼ pIC50 (converted)
T1 construct: made in house; host or cells: Sf9 insect cells
T1 sequence (P14061 1-328): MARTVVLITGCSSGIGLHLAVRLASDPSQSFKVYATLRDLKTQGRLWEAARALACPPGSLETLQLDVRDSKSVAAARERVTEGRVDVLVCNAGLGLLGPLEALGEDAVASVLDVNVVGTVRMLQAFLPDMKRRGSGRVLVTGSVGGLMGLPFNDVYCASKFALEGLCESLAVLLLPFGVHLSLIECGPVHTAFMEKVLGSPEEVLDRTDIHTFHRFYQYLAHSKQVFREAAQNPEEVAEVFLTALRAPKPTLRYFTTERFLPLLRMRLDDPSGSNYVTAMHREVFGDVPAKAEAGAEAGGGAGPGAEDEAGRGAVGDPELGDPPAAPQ
Protocol: The inhibition was determined by HPLC using recombinant human HSD1 and HSD2 proteins as described in a prior study. In short, recombinant human HSD1 and HSD2 were produced in Sf9-insect cells. […] After incubation, the reaction was stopped by addition of […] 10% trichloroacetic acid per sample. […] The ratio of [3H]-E1 converted to [3H]-E2 or vice versa determines the conversion percentage of the samples. Inhibition was measured in three concentrations (100 nM, 1, and 5 µM) in order to follow the progression of inhibition efficiencies. Inhibition efficiencies of the tested inhibitors were calculated by comparing the conversion percentages of the samples including inhibitors with those of conversion controls (without inhibitors).

[2] = target: T2, recombinant human HSD2 (Homo sapiens, UniProt P37059); assay: HSD2 inhibition, HPLC assay of [3H]-E2 to [3H]-E1 conversion; conditions: read-out: HSD2 inhibition at 1 µM
T2 construct: made in house; host or cells: Sf9 insect cells
T2 sequence (P37059 1-387): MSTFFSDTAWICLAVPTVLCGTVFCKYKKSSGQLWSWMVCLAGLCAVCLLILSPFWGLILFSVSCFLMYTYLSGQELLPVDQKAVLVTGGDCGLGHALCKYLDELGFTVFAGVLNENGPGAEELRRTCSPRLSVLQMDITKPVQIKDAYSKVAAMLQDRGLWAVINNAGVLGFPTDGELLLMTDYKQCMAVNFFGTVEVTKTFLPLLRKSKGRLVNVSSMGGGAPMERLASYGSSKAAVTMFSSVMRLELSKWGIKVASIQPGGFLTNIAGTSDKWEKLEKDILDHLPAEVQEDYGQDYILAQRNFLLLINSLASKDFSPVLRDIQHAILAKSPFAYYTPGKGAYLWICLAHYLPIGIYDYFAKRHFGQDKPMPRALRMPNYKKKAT
Protocol: The inhibition was determined by HPLC using recombinant human HSD1 and HSD2 proteins as described in a prior study. In short, recombinant human HSD1 and HSD2 were produced in Sf9-insect cells. […]. After incubation, the reaction was stopped by addition of […] 10% trichloroacetic acid per sample. After incubation the substrate and the product of enzymatic conversion [3H]-E1 and [3H]-E2 were separated and quantified by HPLC (Alliance 2790, Waters, Milford, MA) connected to an online counter (Packard Flow Scintillation Analyser; Perkin Elmer Inc., Waltham, […]). The ratio of [3H]-E1 converted to [3H]-E2 or vice versa determines the conversion percentage of the samples. Inhibition was measured in three concentrations (100 nM, 1, and 5 µM) in order to follow the progression of inhibition efficiencies. Inhibition efficiencies of the tested inhibitors were calculated by comparing the conversion percentages of the samples including inhibitors with those of conversion controls (without inhibitors).

[3] = target: T3, Aromatase (CYP19A1), human placental microsomes (Homo sapiens, UniProt P11511); assay: Aromatase activity, [3H]-H2O release from [3H]-androstenedione; conditions: 50 nM [3H]-androstenedione; inhibitor 60–1000 nM; read-out: Aromatase inhibition ∼ pIC50 (converted)
T3 construct: by using human placental microsomes; from tissue; host or cells: human placental microsomes
T3 sequence (P11511 1-503): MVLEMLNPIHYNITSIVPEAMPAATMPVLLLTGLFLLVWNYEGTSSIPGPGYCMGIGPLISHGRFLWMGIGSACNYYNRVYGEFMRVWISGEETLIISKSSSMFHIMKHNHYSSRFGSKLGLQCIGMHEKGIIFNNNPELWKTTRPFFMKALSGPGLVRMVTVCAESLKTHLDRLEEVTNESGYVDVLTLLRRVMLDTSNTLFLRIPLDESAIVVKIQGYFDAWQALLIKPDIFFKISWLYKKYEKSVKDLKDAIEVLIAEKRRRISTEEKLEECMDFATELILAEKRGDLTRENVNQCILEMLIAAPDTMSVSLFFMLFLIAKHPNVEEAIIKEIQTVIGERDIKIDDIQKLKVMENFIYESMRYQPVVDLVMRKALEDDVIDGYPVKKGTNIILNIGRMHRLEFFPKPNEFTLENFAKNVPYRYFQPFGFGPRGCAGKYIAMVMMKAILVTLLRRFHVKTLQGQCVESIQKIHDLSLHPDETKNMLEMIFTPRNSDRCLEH
Protocol: Aromatase (CYP19A1) activity was measured as described previously[22] by using human placental microsomes and 50 nM [3H]-androstenedione as a substrate and inhibitor concentrations in the range of 60–1000 nM. Aromatase activities were measured as released [3H]-H2O in Optiphase Hisafe 2 scintillation liquid (Perkin Elmer, Waltham, MA) with a Wallac 1450 MicroBeta Trilux scintillation counter (Perkin Elmer, Waltham, MA). As a positive control for aromatase inhibition, 1 µM finrozole (generous gift from Olavi Pelkonen, University of Oulu, Finland) was used.

[4] = 100 nM, read-out: HSD1 inhibition at 100 nM
[5] = 1 µM, read-out: HSD1 inhibition at 1 µM
[6] = 5 µM, read-out: HSD1 inhibition at 5 µM

inhibition at 0.1 µM [1, 4] [%] | inhibition at 1 µM [1, 5] [%] | inhibition at 5 µM [1, 6] [%] | IC50 [1] [µM] | inhibition at 1 µM [2] [%] | IC50 [3] [µM] | Compound | inhibition at 0.1 µM ([1]; read-out: HSD1 inhibition at 100 nM, 100 nM) [%] | inhibition at 1 µM ([1]; read-out: HSD1 inhibition at 1 µM, 1 µM) [%] | inhibition at 5 µM ([1]; read-out: HSD1 inhibition at 5 µM, 5 µM) [%]
16 | ≥ 68 | 88 | 0.501 | 27 | > 1 | COc1ccc(-c2cc3cccc(O)c3oc2=O)cc1 [Compound 1, 8-hydroxy-3–(4-methoxyphenyl)-2H-chromen-2-one] | – | – | –
7 | 47 | 76 | 1.26 | 42 | > 1 | O=c1oc2ccccc2cc1-c1cccc(O)c1 [Compound 3, 3–(3-hydroxyphenyl)-2H-chromen-2-one] | – | – | –
47 | ≥ 68 | 95 | 0.158 | 16 | > 1 | O=c1oc2ccc(Cl)cc2cc1-c1cccc(O)c1 [Compound 4, 6-chloro-3–(3-hydroxyphenyl)-2H-chromen-2-one] | – | – | –
14 | 23 | 27 | 3.98 | 31 | > 1 | COc1ccc2cc(-c3ccc(O)c(F)c3)c(=O)oc2c1 [Compound 6, 3–(3-fluoro-4-hydroxyphenyl)-7-methoxy-2H-chromen-2-one] | – | – | –
16 | 39 | 62 | 1.58 | 13 | > 1 | COc1ccc2oc(=O)c(-c3ccc(O)c(F)c3)cc2c1 [Compound 7, 3–(3-fluoro-4-hydroxyphenyl)-6-methoxy-2H-chromen-2-one] | – | – | –

Compound | inhibition at 0.1 µM [1, 4] [%] | inhibition at 1 µM [1, 5] [%] | inhibition at 5 µM [1, 6] [%] | IC50 [1] [µM] | inhibition at 1 µM [2] [%] | IC50 [3] [µM] | inhibition at 0.1 µM ([1]; read-out: HSD1 inhibition at 100 nM, 100 nM) [%] | inhibition at 1 µM ([1]; read-out: HSD1 inhibition at 1 µM, 1 µM) [%] | inhibition at 5 µM ([1]; read-out: HSD1 inhibition at 5 µM, 5 µM) [%]
O=c1oc2ccc(O)cc2cc1-c1ccc(O)cc1 [Compound 2, 6-hydroxy-3–(4-hydroxyphenyl)-2H-chromen-2-one] | – | – | – | 0.631 | 7 | > 1 | 26 | ≥ 68 | 83
